Data as given in PMC6591177, “Small Molecule IL-36γ Antagonist as a Novel Therapeutic Approach for Plaque Psoriasis” (Scientific Reports, 2019).
Entries after “also recorded” stand apart in the source; their conditions may differ.

How the values were obtained:
[1] = tested on: human IL-36γ evoked CXCL1 release from Human HaCaT cells; test: human IL-36γ evoked CXCL1 release, human HaCaT cells; assay type: cell-based; settings: ± S.D.
Procedure: (§1) The immortalized human keratinocyte cell line HaCaT and mouse fibroblast NIH-3T3 cell line were maintained in culture in DMEM with 10% fetal bovine serum and 1% penicillin/streptomycin added (Sigma). Cells were seeded in 96-well tissue culture plates (Corning) at 25,000 cells per well and allowed to adhere and recover overnight at 37 °C in an incubator. Cells were rinsed with PBS (Sigma) and treated with cytokines diluted in 200 μL/well of the medium (DMEM with 0.5% FBS and 1% penicillin/streptomycin) as indicated. In inhibition mode, the agonist concentration used was at the EC80 for chemokine production and the cells were pre-treated with inhibitors for 30 min prior to adding the agonist. After 24 h of treatment, supernatants were collected and IL-8 and CXCL1[28] levels were assessed using a custom immunoassay (Meso Scale Discovery). EC50/IC50 values were estimated from a four-parameter logistic fit using Prism software (GraphPad).

[2] = tested on: IL-36γ evoked CXCL1 release from Mouse NIH-3T3 cells; test: IL-36γ evoked CXCL1 release, mouse NIH-3T3 cells; assay type: cell-based; settings: for IC50: NIH-3T3 cells, n = 4, read-out: IC50 attenuation of CXCL1 release induced by human IL-36γ
Procedure: as §1

human IL-36γ [3] = molecular target: T1, human IL-36γ (Homo sapiens, UniProt Q9NZH8); test: Thermal shift assay, human IL-36γ; assay type: binding; settings: 100 μM compound; read-out: increase of melting temperature of human IL-36γ
T1 construct: His6-SUMO-human IL-36γ (18–169); His6-SUMO (N, cleaved yes); made in house; host or cells: E. coli BL21 (DE3)
T1 sequence (Q9NZH8 18-169): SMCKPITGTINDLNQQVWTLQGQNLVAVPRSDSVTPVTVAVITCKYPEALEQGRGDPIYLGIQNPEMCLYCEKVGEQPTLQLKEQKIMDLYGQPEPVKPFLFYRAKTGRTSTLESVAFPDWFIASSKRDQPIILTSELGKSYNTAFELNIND
Procedure: (§2) Thermal shift assays[30] were performed on a Roche LightCycler 480 instrument using Sypro Orange Dye (Invitrogen). Reactions consisted of 0.5–2 µM purified recombinant protein in PBS, pH 7.4, a 1/500 dilution of the stock Sypro Orange reagent, and 100 µM test compounds, resulting in a final DMSO concentration of 1%. The samples were heated from 20 °C to 95 °C at a rate of 0.25 °C per second.

human IL-36α = molecular target: T2, human IL-36α (Homo sapiens, UniProt Q9UHA7); test: Thermal shift assay / affinity, human IL-36α; assay type: binding; settings: thermal shift assay at 100 μM (Supplementary Fig. 4)
T2 construct: using recombinant truncated proteins
T2 sequence (Q9UHA7 6-158): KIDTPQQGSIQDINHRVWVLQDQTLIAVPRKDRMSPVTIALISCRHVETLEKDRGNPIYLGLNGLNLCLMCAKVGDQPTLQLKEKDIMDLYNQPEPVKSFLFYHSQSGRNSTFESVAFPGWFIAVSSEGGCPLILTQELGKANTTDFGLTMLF
Procedure: as §2

human IL-36γ [4] = molecular target: T1, human IL-36γ; test: Isothermal titration calorimetry; assay type: binding; settings: 25 °C, pH 7.5; read-out: KD (ITC)
Procedure: All experiments were carried out on a MicroCal^TM Auto-ITC200 at 25 °C in 50 mM HEPES (pH = 7.5), 150 mM NaCl, 0.5 mM TCEP, 2% DMSO. IL-36γ protein solution was buffer exchanged by gel filtration into the isothermal titration calorimetry (ITC) buffer and diluted to 40 µM. The titrations were conducted using an initial injection of 0.2 µL followed by 19 identical injections of 2 µL of 400 µM compound solution. Thermodynamic parameters were calculated using ∆G = ∆H − T∆S = −RTlnKB, where ∆G, ∆H and ∆S are the changes in free energy, enthalpy and entropy of binding respectively. A single binding site model was employed.

[5] = tested on: human IL-36γ induced plasma CXCL1; test: hIL-36γ induced CXCL1 release in mouse plasma; assay type: in vivo; settings: C57BL/6 mice, compounds 10, 30 and 100 mg/kg p.o.; antibody i.p.
From the text: Female C57BL/6 mice (9–10 weeks old, 19–23 g) were purchased from Charles River Laboratories. All animal procedures were approved by AbbVie’s Institutional Animal Care and Use Committee (IACUC) and performed in accordance with the relevant IACUC guidelines and regulations. To examine engagement of human IL-36γ with antagonists under in vivo conditions, a mouse acute CXCL1 release assay was established which was similar to one previously reported. Plasma CXCL1 secretion was induced by subcutaneous injection of 2 μg human IL-36γ (in 100 μL PBS) into C57BL/6 mice. Blood was withdrawn via cardiac puncture 2 h after the challenge with IL-36γ. A-552 and A-553 were dosed at 10, 30 and 100 mg/kg p.o. 45 min before IL-36γ challenge. Anti-IL36R antibodies were dosed i.p. at 24 hours before IL-36γ challenge. Plasma CXCL1 levels were analyzed using MSD V-PLEX kit.

[6] = tested on: IL-1β evoked IL-8 release from HaCaT cells; test: IL-1β evoked IL-8 release assay in HaCaT cells; assay type: cell-based, human; settings: agonist mode, n = 3
Procedure: as §1
The IL-8 release assays were miniaturized for HTS hit follow-up. Frozen aliquots of HaCaT cells were thawed, added to complete media, mixed, spun down, resuspended in fresh media, and dispensed using the Multidrop384 into black, clear-bottom 384 well plates at a final density of 4000 cells/well. […] Cell viability was assessed using Cell Titer-Glo (Promega) according to the manufacturers’ instructions.

[7] = molecular target: T3, human IL-36R/IL-1RAcP extracellular domain (ECD) knob-in-hole Fc (human, UniProt Q9HB29 20-335; Q9NPH3 21-367); test: AlphaScreen or HTRF; TR-FRET, competitive mode: unlabeled human IL-36γ or IL-36Ra titrated against 6 nM Alexa 488 human IL-36γ, receptor heterodimer 1.5 μg/mL, 6 nM Tb-anti-His antibody; Ki by the Cheng-Prusoff equation; settings: both partners purified
T3 construct: human IL-36 receptor subunit (IL-36R), extracellular domain; human IL-1RAcP co-receptor subunit, extracellular domain; Both proteins were engineered with an Fc 'knob-in-hole' to force heterodimerisation; also called hIL-36R/IL-1RAcP ECD knob-in-hole Fc; human IL-36R/IL-1RAcP ECD Fc heterodimer; not shown: His tag (from the nickel column and the Tb-anti-His detection)
T3 sequence (looked up) 1: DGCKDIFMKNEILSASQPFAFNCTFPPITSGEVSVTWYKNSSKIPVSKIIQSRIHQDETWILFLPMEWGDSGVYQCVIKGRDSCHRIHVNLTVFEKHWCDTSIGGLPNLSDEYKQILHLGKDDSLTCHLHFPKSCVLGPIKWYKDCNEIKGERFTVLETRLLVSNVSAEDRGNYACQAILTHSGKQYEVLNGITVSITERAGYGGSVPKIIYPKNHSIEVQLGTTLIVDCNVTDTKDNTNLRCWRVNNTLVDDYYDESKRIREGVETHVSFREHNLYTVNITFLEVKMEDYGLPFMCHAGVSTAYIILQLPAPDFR
T3 sequence (looked up) 2: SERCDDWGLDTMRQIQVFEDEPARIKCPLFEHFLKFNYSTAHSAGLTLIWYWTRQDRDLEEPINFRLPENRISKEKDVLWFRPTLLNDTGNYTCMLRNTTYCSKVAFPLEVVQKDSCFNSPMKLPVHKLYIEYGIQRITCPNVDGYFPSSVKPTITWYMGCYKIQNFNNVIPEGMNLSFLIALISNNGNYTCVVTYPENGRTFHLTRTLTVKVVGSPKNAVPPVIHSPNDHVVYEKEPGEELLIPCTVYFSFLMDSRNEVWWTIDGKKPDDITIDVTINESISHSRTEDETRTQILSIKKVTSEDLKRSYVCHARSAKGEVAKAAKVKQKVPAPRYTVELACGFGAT

[8] = tested on: 3D human skin equivalents; test: IL-36γ induced 3D skin equivalent model; assay type: cell-based; settings: 0.3 μg/mL hIL-36γ; 10 μM A-552, 10 μg/mL antibody or IL-36Ra; three days
Procedure: Hematoxylin & eosin (H&E) staining and immunohistochemistry (IHC) were performed using a Leica ST5010 autostainer or Leica Bond RX automated immunostainer. Standardized IHC protocols were used for anti-loricrin staining (Abcam AB85679). Stained tissue slides were digitized for image analysis using a Perkin Elmer P250 whole slide digital pathology slide scanner with 20X objective and extended focus scanning parameters. For quantitative analysis, N = 3 raft samples were analyzed per condition for each stain using whole slide digital analysis software (Indica Labs HALO). Staining was normalized to the length of the raft sample analyzed.
3D skin equivalents (SOR-300-FT-CTR) comprised of human neonatal keratinocytes and fibroblasts were purchased from MatTek, equilibrated for one day in proprietary formulated media (SOR-300-FT-CTR-MM) and then treated as indicated. Treatment groups contained hIL-36γ at 300 ng/mL, 10 μM of A-552, 10 μg/mL anti-IL36R antibody, 10 μg/mL IL-36RA, or 10 μg/mL IgG isotype control either alone or in combination with hIL-36γ. Control skin equivalents were treated with media only. Skin equivalents were treated for three days, with media collected for cytokine release studies at day two and replaced with fresh treatment media. After three days the skin equivalents were either placed in 10% neutral buffered formalin solution (for histology) or frozen (for qRT-PCR).
To measure IL-6, IL-8 and CXCL1 release from 3D skin equivalents diluted sample media collected at day 2 of the treatment (see above) was used in conjunction with V-PLEX multiplex immunoassay for IL-6 and IL-8 and a U-PLEX immunoassay for CXCL1 (Meso Scale Discovery) according to the manufacturers’ protocols.
RNA from frozen 3D skin equivalents was isolated using miRNeasy Mini Kit (Qiagen) per the manufacturers’ instructions. For qRT-PCR determination a CFX384 Real-Time System C1000 Touch Thermocycler was used. […] Each transcript measured was presented as a fold change compared to control using the ∆∆CT method as RNA fold increase where RPLP0 was used as a housekeeping gene.

## COC(c1ccccc1)(c1ccccc1)[C@@H](Oc1nc(C)cc(-c2ccc(C)c(N)c2)n1)C(=O)O [Compound A-553]
[1]
  Ki: 3.7 ± 2.3 µM
[2]; human IL-36γ evoked CXCL1 release, ± S.D.
  Ki: 3.7 ± 1.7 µM
Human IL-36γ [3]
  ΔTm at 100 µM: 1.3 °C
Human IL-36α
  binding / affinity to human IL-36α: do not bind
Human IL-36γ [4]
  Kd: 3 ± 0.33 µM
[5]
  effect on hIL-36γ induced plasma CXCL1 release (in words): little effect; also recorded: no effect

## IL-1β: human IL-1β cytokine used in the selectivity assay
[6]
  EC50: 5.7 ± 3.8 pM

B1: mouse IL-36Ra: mouse IL-36 receptor antagonist protein (protein, UniProt Q9QYY1 2-156, looked up)
Interleukin-36 receptor …: MVLSGALCFRMKDSALKVLYLHNNQLLAGGLHAEKVIKGEEISVVPNRALDASLSPVILGVQGGSQCLSCGTEKGPILKLEPVNIMELYLGAKESKSFTFYRRDMGLTSSFESAAYPGWFLCTSPEADQPVRLTQIPEDPAWDAPITDFYFQQCD
[2]
  IC50: 19 ± 9 nM

B2: human IL-36γ (18–169) (ligand, UniProt Q9NZH8 18-169, looked up)
chain: T1 sequence (Q9NZH8 18-169)
notes: human IL-36γ, residues 18-169; also called hIL-36γ; unlabeled IL-36γ; source: E. coli BL21 (DE3), purified (nickel column, ULP1 cleavage, Superdex 75 gel filtration); not shown: His6, N-terminal, cleaved; SUMO, N-terminal, cleaved
[7]
  Ki: 0.4 nM

B3: human IL-36Ra: recombinant soluble human IL-36 receptor antagonist (2–155) (protein)
chain: VLSGALCFRMKDSALKVLYLHNNQLLAGGLHAGKVIKGEEISVVPNRWLDASLSPVILGVQGGSQCLSCGVGQEPTLTLEPVNIMELYLGAKESKSFTFYRRDMGLTSSFESAAYPGWFLCTVPEADQPVRLTQLPENGGWNAPITDFYFQQCD
modifications: left off: His6, N-terminal, cleaved | SUMO, N-terminal, cleaved
[2]
  IC50: 23 ± 10 nM
[8]
  effect on hIL-36γ induced changes in morphology, gene expression and cytokine production: fully attenuated
